The source of these data is patent US8343988B2, “Inhibitors of histone deacetylase” (Janssen Pharmaceutica, N.V, priority 2002, dated 2013).

Like-named read-outs stand apart in the source and are kept apart here.

Data set [1] addresses histone deacetylase (HeLa nuclear extracts). In words: In vitro assay for inhibition of histone deacetylase. The class given is biochemical. The settings on record: [3H]acetylated histone H4 peptide substrate, 30 min. Here is the method:
The in vitro assay for inhibition of histone deacetylase (see example C.1) measures the inhibition of HDAC enzymatic activity obtained with the compounds of formula (I).
HeLa nuclear extracts (supplier: Biomol) were incubated at 60 μg/ml with 2×10^−8 M of radiolabeled peptide substrate. As a substrate for measuring HDAC activity a synthetic peptide, i.e. the amino acids 14-21 of histone H4, was used. The substrate is biotinylated at the NH2-terminal part with a 6-aminohexanoic acid spacer, and is protected at the COOH-terminal part by an amide group and specifically [^3H]acetylated at lysine 16. The substrate, biotin-(6-aminohexanoic)Gly-Ala-([^3H]-acetyl-Lys-Arg-His-Arg-Lys-Val-NH2), was added in a buffer containing 25 mM Hepes, 1 M sucrose, 0.1 mg/ml BSA and 0.01% Triton X-100 at pH 7.4. After 30 min the deacetylation reaction was terminated by the addition of HCl and acetic acid. (final concentration 0.035 mM and 3.8 mM respectively). After stopping the reaction, the free ^3H-acetate was extracted with ethylacetate. After mixing and centrifugation, the radioactivity in an aliquot of the upper (organic) phase was counted in a β-counter.
For each experiment, controls (containing HeLa nuclear extract and DMSO without compound), a blank incubation (containing DMSO but no HeLa nuclear extract or compound) and samples (containing compound dissolved in DMSO and HeLa nuclear extract) were run in parallel. […] The control sample represented 100% of substrate deactylation. For each sample the radioactivity was expressed as a percentage of the mean value of the controls. […] Herein the effects of test compounds are expressed as pIC50 (the negative log value of the IC50-value).

The subject of data set [2] is A2780 ovarian carcinoma cells. Description: Antiproliferative activity on A2780 cells (MTT). The conditions noted are these: Homo sapiens, 96 h, four days of incubation, read-out: Cellular activity pIC50 (converted). Format: cell-based. How it is done:
Cellular activity of the compounds of formula (I) was determined on A2780 tumour cells using a […] assay for cell toxicity or survival (Mosmann Tim, Journal of Immunological Methods 65: 55-63, 1983)(see example C.2).
All compounds tested were dissolved in DMSO and further dilutions were made in culture medium. Final DMSO concentrations never exceeded 0.1% (v/v) in cell proliferation assays. Controls contained A2780 cells and DMSO without compound and blanks contained DMSO but no cells. MTT was dissolved at 5 mg/ml in PBS. A glycine buffer comprised of 0.1 M glycine and 0.1 M NaCl buffered to pH 10.5 with NaOH (1 N) was prepared (all reagents were from Merck).
The human A2780 ovarian carcinoma cells (a kind gift from Dr. T. C. Hamilton [Fox Chase Cancer Centre, Pennsylvania, USA]) were cultured in RPMI 1640 medium supplemented with 2 mM L-glutamine, 50 μg/ml gentamicin and 10% fetal calf serum. Cells were routinely kept as monolayer cultures at 37° C. in a humidified 5% CO2 atmosphere. Cells were passaged once a week using a trypsin/EDTA solution at a split ratio of 1:40. All media and supplements were obtained from Life Technologies. Cells were free of mycoplasma contamination as determined using the Gen-Probe Mycoplasma Tissue Culture kit (supplier: BioMérieux).
Cells were seeded in NUNC™ 96-well culture plates (Supplier: Life Technologies) and allowed to adhere to the plastic overnight. Densities used for plating were 1500 cells per well in a total volume of 200 μl medium. After cell adhesion to the plates, medium was changed and drugs and/or solvents were added to a final volume of 200 μl. Following four days of incubation, medium was replaced by 200 μl fresh medium and cell density and viability was assessed using an MTT-based assay. To each well, 25 μl MTT solution was added and the cells were further incubated for 2 hours at 37° C. The medium was then carefully aspirated and the blue MTT-formazan product was solubilized by addition of 25 μl glycine buffer followed by 100 μl of DMSO. […] Within an experiment, the results for each experimental condition are the mean of 3 replicate wells. For initial screening purposes, compounds were tested at a single fixed concentration of 10^−6 M. For active compounds, the experiments were repeated to establish full concentration-response curves. For each experiment, controls (containing no drug) and a blank incubation (containing no cells or drugs) were run in parallel. The blank value was subtracted from all control and sample values. For each sample, the mean value for cell growth (in absorbance units) was expressed as a percentage of the mean value for cell growth of the control. […] Herein the effects of test compounds are expressed as pIC50 (the negative log value of the IC50-value).

Assay in data set [3]: not given
This is another data set of the same source.

Data set [4] is described as follows: Kinetic solubility in aqueous media. Format: physicochemical. The settings on record: aqueous buffer, kinetic from dmso stock; phosphate citrate buffer pH 7.4, turbidity by nephelometer; read-out: Solubility Score. How it is done: Kinetic solubility in aqueous media measures the ability of a compound to stay in aqueous solution upon dilution (see example C.3).
DMSO-stock solutions are diluted with a single aqueous buffer solvent in 3 consecutive steps. For every dilution turbidity is measured with a nephelometer.
In the first dilution step, 10 μl of a concentrated stock-solution of the active compound, solubilized in DMSO (5 mM), was added to 100 μl phosphate citrate buffer pH 7.4 and mixed. In the second dilution step, an aliquot (20 μl) of the first dilution step was further dispensed in 100 μl phosphate citrate buffer pH 7.4 and mixed. Finally, in the third dilution step, a sample (20 μl) of the second dilution step was further diluted in 100 μl phosphate citrate buffer pH 7.4 and mixed. All dilutions were performed in 96-well plates. Immediately after the last dilution step the turbidity of the three consecutive dilution steps were measured with a nephelometer. Dilution was done in triplicate for each compound to exclude occasional errors. Based on the turbidity measurements a ranking is performed into 3 classes. Compounds with high solubility obtained a score of 3 and for this compounds the first dilution is clear. Compounds with medium solubility obtained a score of 2. For these compounds the first dilution is unclear and the second dilution is clear. […] The solubility of 6 compounds was measured.

As to `CCCO` [propanol], under “15 min incubation with active microsomes, compound 5 μM”, the “% metabolism” value came out at 25%.
Regarding `O=C(NO)c1cnc(N2CCN(C3CCN(S(=O)(=O)c4ccc5ccccc5c4)CC3)CC2)nc1` [Co. No. 3], the “Enzyme activity pIC50” value in data set [1] is on record as 7.28. In data set [2], the IC50 is 0.964 µM. The same compound came in with a melting point in data set [3] of 210 °C. Also, the solubility in data set [4] was less than 75.8 µM.
The corresponding values for `O=C(NO)c1ccc(N2CCN(Cc3ccccc3)CC2)cc1` [Co. No. 2] are 6.377, 9.12 µM, 196 °C and more than 454 µM.
On to `COc1cc(N)c(Cl)cc1C(=O)NC1CCN(CCCOc2ccc(F)cc2)CC1OC` (stereo not shown) [Cisapride], for which the “% metabolism” value (human, 15 min, 5 μM) is listed as 45%.

As usually defined, the melting point is the temperature of the solid-liquid transition. A word on the solubility: it is the concentration that dissolves in the medium under given conditions.
